From ChEMBL document CHEMBL5724709, “EUbOPEN Chemogenomics Library - IncuCyte” (2024)
Peptide text beside a SMILES is read from it.

Tests used:
Type in all cases: toxicity, cell-based
U2OS = assay: Incucyte cell viability with U2OS; details: human, 24 h, 10 µM, compound concentration 10 uM
Fibroblast = assay: Incucyte cell viability with human fibroblast; details: 24 h, 10 µM, compound concentration 10 uM
HEK-293T = assay: Incucyte cell viability with HEK293T; details: human, 24 h, 10 µM, compound concentration 10 uM
Further: unitless GR value; below 1 slowed growth and below 0 cell loss.

Compound | Growth Rate (U2OS; replicate number 1) | Growth Rate (U2OS; replicate number 2) | Growth Rate (Fibroblast; replicate number 1) | Growth Rate (Fibroblast; replicate number 2) | Growth Rate (HEK-293T; replicate number 1) | Growth Rate (HEK-293T; replicate number 2)
CNC(=O)N1CCc2c(c(N3CCCc4cc(-c5cnn(C)c5)c(C(F)F)cc43)nn2C2CCOCC2)C1 | 0.76 | 1 | 1 | 0.36 | 0.56 | 0.52
Cc1cc(C(=O)N2CCN(C3CN(C(=O)c4ccc(-c5ccccc5)cc4)C3)CC2)no1 | 0.79 | 1 | 0.37 | 0.27 | 0.61 | 0.63
CCNC(=O)c1noc(-c2cc(C(C)C)c(O)cc2O)c1-c1ccc(CN2CCOCC2)cc1 [LUMINESPIB] | -0.21 | 0 | -0.02 | -0.27 | -0.29 | -0.15
CCN(c1cc(-c2ccc(CN3CCOCC3)cc2)cc(C(=O)NCc2c(C)cc(C)[nH]c2=O)c1C)C1CCOCC1 [TAZEMETOSTAT] | 0.43 | 0.87 | 0.54 |  | 0.68 | 0.82
Cn1c(=O)c2c(nc(N3CCNCC3)n2Cc2nnc(-c3ccc(Cl)c(Cl)c3)o2)n(C)c1=O | 1 | 0.88 | 1 |  | 0.79 | 1
CCCOc1ccc(CCc2nc3cc(-c4c(C)noc4C)ccc3n2CCN2CCOCC2)cc1 | 0.57 | 0.8 | 1 | 0.67 | 0.54 | 0.57
COc1cc(-c2cn(C)c(=O)c3cnccc23)cc(OC)c1CN(C)CC(=O)NCCOCCOCCNc1cccc2c1C(=O)N(C1CCC(=O)NC1=O)C2=O (stereo unspecified) | 0.78 | 0.96 | 0.26 | 0.72 | 0.8 | 0.98
CNCCN(C)Cc1cn[nH]c1-c1ccc(OC2CC(OCCC3CCOCC3)C2)cc1 (stereo unspecified) | 0.23 | 1 | 0.77 | 0.95 | 0.64 | 0.82
CC1(C)c2cccc(C(=O)NO)c2CN1c1cnc(C(F)(F)F)cn1 | 0.15 | 1 | 1 | -0.04 | 0.61 | 0.71
CCCOc1cc(OCCCCN(C)C)cc(Oc2cc3c(cc2NS(=O)(=O)c2ccc(OC)c(OC)c2)n(C)c(=O)n3C)c1.O=C(O)C(F)(F)F | 0.87 | 1 | 1 |  | 0.59 | 0.72
O=C(NO)c1cccc(C(=O)NCCc2ccccc2)c1 | 0.02 | 0.85 | 1 | -0.07 | 0.83 | 0.99
CC(=O)O[C@]1(C(C)=O)CC[C@H]2[C@@H]3C=C(Cl)C4=CC(=O)[C@@H]5C[C@@H]5[C@]4(C)[C@H]3CC[C@@]21C [CYPROTERONE ACETATE] | 1 | 0.72 | 0.21 | 0.15 | 0.61 | 0.76
CC(C)(C)OC(=O)Nc1ccc(CNc2nccc(Nc3cc(C(=O)OC(C)(C)C)[nH]n3)n2)cc1 | 0.42 | 0.67 | 1 | 0.07 | -0.38 | -0.24
Cc1ncccc1-c1cnc(NCc2c(F)ccc3c2CCO3)n2cnnc12 | 1 | 0.88 | 0.59 | 0.1 | 0.64 | 1
CCCC(NC(=O)C(CC(C)C)NC(=O)OCc1ccccc1)C(=O)C(=O)NCc1ccccn1 (racemic) | 1 | 0.89 | 0.96 | 1 | 0.78 | 1
Nc1ccc(-c2cccs2)cc1NC(=O)c1ccc2nc(N3CCNCC3)ccc2c1 | 0.21 | 0.63 | 1 |  | 0.92 | 0.99
Cc1ccc(NC2=CC(=O)c3sc(C)nc3C2=O)cc1 | -0.86 | -0.45 | -0.84 | -0.96 | -0.37 | -0.23
CC/C(=C(/CC)c1ccc(O)cc1)c1ccc(O)cc1 [DIETHYLSTILBESTROL] | 1 | 0.74 | 0.45 | 0.22 | 0.72 | 0.87
CCN1C(C)(C)CC(Oc2ccc(C(=O)Nc3ccc(NC(=O)Nc4cc(C(C)(C)C)on4)cc3)nc2)CC1(C)C | 0.51 | 0.66 | 0.74 | 0.78 | -0.29 | 0.58
CNc1ncc2cc(-c3cc(NC(=O)NCCC(C)(C)C)c(F)cc3C)c(C)nc2n1 [LY-3009120] | -0.28 | 0.07 | -0.76 | -0.55 | 0.3 | 0.63
CC[C@H](C)[C@H](NC(=O)[C@H](CCC(=O)O)NC(=O)[C@@H](NC(C)=O)C(C)C)C(=O)N[C@H](C=O)CC(=O)O.O=C(O)C(F)(F)F (Ac-VEID-aldehyde) | 1 |  | 1 | 0.22 | 0.64 | 0.97
CC(=O)N[C@@H](CC(=O)O)C(=O)N[C@@H](CCC(=O)O)C(=O)N[C@H](C(=O)N[C@@H](CC(=O)O)C(=O)CCl)C(C)C.O=C(O)C(F)(F)F | 1 |  | 1 | 0.21 | 0.81 | 1
